According to PubChem BioAssay (NCI):
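Where inhibition never reached the appropriate level, the endpoint shown equals the highest concentration tested. Otherwise, values were interpolated linearly from a five-concentration, 48-hour dose response in 96-well plates. GI50 = concentration required for 50% inhibition of growth. At the TGI there is no net growth.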

How the values were obtained:
Experiment in all cases: inhibition of tumour cell growth, NCI panel, 48 h
OVCAR-5 ovarian = tested on: OVCAR-5 ovarian
SR leukemia = tested on: SR leukemia
ACHN renal = tested on: ACHN renal
U251 CNS = tested on: U251 CNS
IGROV1 ovarian = tested on: IGROV1 ovarian
MALME-3M melanoma = tested on: MALME-3M melanoma
786-0 renal = tested on: 786-0 renal
SW-620 colon = tested on: SW-620 colon
UACC-62 melanoma = tested on: UACC-62 melanoma
UACC-257 melanoma = tested on: UACC-257 melanoma
RPMI-8226 leukemia = tested on: RPMI-8226 leukemia
TK-10 renal = tested on: TK-10 renal
MDA-MB-435 = tested on: MDA-MB-435
MOLT-4 leukemia = tested on: MOLT-4 leukemia
HCT-116 colon = tested on: HCT-116 colon
OVCAR-4 ovarian = tested on: OVCAR-4 ovarian
SF-539 CNS = tested on: SF-539 CNS
HCT-15 colon = tested on: HCT-15 colon
BT-549 breast = tested on: BT-549 breast
SF-268 CNS = tested on: SF-268 CNS
SK-MEL-28 melanoma = tested on: SK-MEL-28 melanoma
HT29 colon = tested on: HT29 colon
K-562 leukemia = tested on: K-562 leukemia
A498 renal = tested on: A498 renal
T-47D breast = tested on: T-47D breast
UO-31 renal = tested on: UO-31 renal
HL-60(TB) leukemia = tested on: HL-60(TB) leukemia
SN12C renal = tested on: SN12C renal
COLO 205 colon = tested on: COLO 205 colon
NCI-H460 lung = tested on: NCI-H460 lung
NCI-H522 lung = tested on: NCI-H522 lung
SK-MEL-2 melanoma = tested on: SK-MEL-2 melanoma
A549 NSCLC = tested on: A549 NSCLC
CCRF-CEM leukemia = tested on: CCRF-CEM leukemia
HOP-92 NSCLC = tested on: HOP-92 NSCLC
NCI/ADR-RES ovarian = tested on: NCI/ADR-RES ovarian
KM12 colon = tested on: KM12 colon
SK-MEL-5 melanoma = tested on: SK-MEL-5 melanoma
MDA-MB-231 breast = tested on: MDA-MB-231 breast
SK-OV-3 ovarian = tested on: SK-OV-3 ovarian
DU-145 prostate = tested on: DU-145 prostate
NCI-H226 lung = tested on: NCI-H226 lung
CAKI-1 renal = tested on: CAKI-1 renal
HOP-62 NSCLC = tested on: HOP-62 NSCLC
SNB-75 CNS = tested on: SNB-75 CNS
SNB-19 CNS = tested on: SNB-19 CNS
RXF 393 renal = tested on: RXF 393 renal
HCC-2998 colon = tested on: HCC-2998 colon
MCF7 breast = tested on: MCF7 breast
PC-3 prostate = tested on: PC-3 prostate
OVCAR-8 ovarian = tested on: OVCAR-8 ovarian
HS 578T breast = tested on: HS 578T breast
LOX IMVI melanoma = tested on: LOX IMVI melanoma
OVCAR-3 ovarian = tested on: OVCAR-3 ovarian
M14 melanoma = tested on: M14 melanoma
SF-295 CNS = tested on: SF-295 CNS
EKVX NSCLC = tested on: EKVX NSCLC

Compound: CCNC(=O)N1CCc2cc(OC)c(OCCc3ccc(OC)cc3)cc2C1c1ccc(OC)cc1C (stereo unspecified)
- GI50 (OVCAR-5 ovarian): 2.35 µM
- TGI (OVCAR-5 ovarian): > 100 µM
- GI50 (SR leukemia): 0.151 µM
- TGI (SR leukemia): 2.69 µM
- GI50 (ACHN renal): 0.755 µM
- TGI (ACHN renal): > 100 µM
- GI50 (U251 CNS): 0.557 µM
- TGI (U251 CNS): > 100 µM
- GI50 (IGROV1 ovarian): 0.755 µM
- TGI (IGROV1 ovarian): > 100 µM
- GI50 (MALME-3M melanoma): 12.2 µM
- TGI (MALME-3M melanoma): > 100 µM
- GI50 (786-0 renal): 0.715 µM
- TGI (786-0 renal): > 100 µM
- GI50 (SW-620 colon): 0.741 µM
- TGI (SW-620 colon): > 100 µM
- GI50 (UACC-62 melanoma): 0.644 µM
- TGI (UACC-62 melanoma): > 100 µM
- GI50 (UACC-257 melanoma): 6.66 µM
- TGI (UACC-257 melanoma): > 100 µM
- GI50 (RPMI-8226 leukemia): 0.486 µM
- TGI (RPMI-8226 leukemia): 4.89 µM
- GI50 (TK-10 renal): 5.95 µM
- TGI (TK-10 renal): > 100 µM
- GI50 (MDA-MB-435): 0.77 µM
- TGI (MDA-MB-435): 7.23 µM
- GI50 (MOLT-4 leukemia): 0.314 µM
- TGI (MOLT-4 leukemia): > 100 µM
- GI50 (HCT-116 colon): 0.232 µM
- TGI (HCT-116 colon): > 100 µM
- GI50 (OVCAR-4 ovarian): 3.73 µM
- TGI (OVCAR-4 ovarian): > 100 µM
- GI50 (SF-539 CNS): 0.572 µM
- TGI (SF-539 CNS): 5.72 µM
- GI50 (HCT-15 colon): 0.168 µM
- TGI (HCT-15 colon): > 100 µM
- GI50 (BT-549 breast): 1.36 µM
- GI50 (SF-268 CNS): 1.32 µM
- TGI (SF-268 CNS): > 100 µM
- GI50 (SK-MEL-28 melanoma): 1.41 µM
- TGI (SK-MEL-28 melanoma): > 100 µM
- GI50 (HT29 colon): 0.694 µM
- TGI (HT29 colon): 9.66 µM
- GI50 (K-562 leukemia): 0.242 µM
- TGI (K-562 leukemia): > 100 µM
- TGI (A498 renal): > 22.2 µM
- GI50 (T-47D breast): 2.96 µM
- TGI (T-47D breast): > 100 µM
- GI50 (UO-31 renal): 1.45 µM
- TGI (UO-31 renal): > 100 µM
- GI50 (HL-60(TB) leukemia): 0.583 µM
- TGI (HL-60(TB) leukemia): 5.23 µM
- GI50 (SN12C renal): 1.53 µM
- TGI (SN12C renal): > 100 µM
- GI50 (COLO 205 colon): 1.07 µM
- TGI (COLO 205 colon): > 100 µM
- GI50 (NCI-H460 lung): 0.288 µM
- TGI (NCI-H460 lung): > 32.9 µM
- GI50 (NCI-H522 lung): 0.698 µM
- TGI (NCI-H522 lung): 3.34 µM
- GI50 (SK-MEL-2 melanoma): 3.8 µM
- TGI (SK-MEL-2 melanoma): > 29.7 µM
- GI50 (A549 NSCLC): 1.39 µM
- TGI (A549 NSCLC): > 100 µM
- GI50 (CCRF-CEM leukemia): 0.432 µM
- TGI (CCRF-CEM leukemia): > 100 µM
- GI50 (HOP-92 NSCLC): 3.91 µM
- TGI (HOP-92 NSCLC): > 100 µM
- GI50 (NCI/ADR-RES ovarian): 0.871 µM
- TGI (NCI/ADR-RES ovarian): > 30 µM
- GI50 (KM12 colon): 1.12 µM
- TGI (KM12 colon): > 100 µM
- GI50 (SK-MEL-5 melanoma): 0.741 µM
- TGI (SK-MEL-5 melanoma): 3.16 µM
- GI50 (MDA-MB-231 breast): 1.04 µM
- TGI (MDA-MB-231 breast): > 100 µM
- GI50 (SK-OV-3 ovarian): 5.44 µM
- TGI (SK-OV-3 ovarian): > 100 µM
- GI50 (DU-145 prostate): 1.33 µM
- TGI (DU-145 prostate): > 100 µM
- GI50 (NCI-H226 lung): 2.72 µM
- TGI (NCI-H226 lung): > 53.8 µM
- GI50 (CAKI-1 renal): 1.15 µM
- TGI (CAKI-1 renal): > 100 µM
- GI50 (HOP-62 NSCLC): 1.59 µM
- TGI (HOP-62 NSCLC): > 100 µM
- GI50 (SNB-75 CNS): 0.893 µM
- TGI (SNB-75 CNS): > 27.2 µM
- GI50 (SNB-19 CNS): 1.16 µM
- TGI (SNB-19 CNS): > 100 µM
- GI50 (RXF 393 renal): 1.51 µM
- TGI (RXF 393 renal): 4.19 µM
- GI50 (HCC-2998 colon): 1.95 µM
- TGI (HCC-2998 colon): > 100 µM
- GI50 (MCF7 breast): 0.528 µM
- TGI (MCF7 breast): > 100 µM
- GI50 (PC-3 prostate): 0.489 µM
- TGI (PC-3 prostate): > 100 µM
- GI50 (OVCAR-8 ovarian): 0.821 µM
- TGI (OVCAR-8 ovarian): > 100 µM
- GI50 (HS 578T breast): 1.66 µM
- TGI (HS 578T breast): > 31.1 µM
- GI50 (LOX IMVI melanoma): 0.3 µM
- GI50 (OVCAR-3 ovarian): 1.96 µM
- TGI (OVCAR-3 ovarian): > 100 µM
- GI50 (M14 melanoma): 1.24 µM
- TGI (M14 melanoma): > 100 µM
- GI50 (SF-295 CNS): 0.875 µM
- TGI (SF-295 CNS): > 37.5 µM
- GI50 (EKVX NSCLC): 5.64 µM
- TGI (EKVX NSCLC): > 100 µM
